The results in this text go back to PMC7667655, “Targeted Covalent Inhibition of Plasmodium FK506 Binding Protein 35” (ACS Medicinal Chemistry Letters, 2020).

Structures are written as SMILES. Entries after “also recorded” stand apart in the source; their conditions may differ.

One data set has as its target T1, FKBP35 (Plasmodium falciparum, UniProt Q8I4V8).
T1 construct: FKBP35 Q5 -A128; 6His-SUMO (N, cleaved yes); made in house; host or cells: E. coli BL21 DE3
Description: Time course of covalent modification by LC-MS. It counts as biochemical. The conditions noted are these: for K, rate of FKBP35 consumption: 2250 nM inhibitor : 450 nM FKBP35, 23 °C, one phase decay fit; for K’, rate of covalent adduct formation: 2250 nM inhibitor : 450 nM FKBP35, exponential plateau fit. The source says:
RT=5.2). B. Overlay of mass determinations from LC traces in (A). FBD35 only (black, m/z = […]
chromatogram corresponding to Figure 4c detecting the CAM -peptide […] at […]
m/z 855.8668. D. Mass spec chromatogram corresponding to Figure 4d detecting the CAM - […]
peptide […] at m/z 855.8670. E. Mass spec chromatogram corresponding to Figure 4e which was unable to detect the mass of the 1c-inclusion peptide. F. Mass spec chromatogram corresponding to Figure 4f detecting the 1c-inclusion peptide […]
Figure S2. Time course of covalent modification. In order to compare rates of covalent modification, compounds 1a-c, 2a, and 2c were incubated with FKBP35 in a 5:1 ratio (2250 nM inhibitor : 450 nM FKBP35) and FKBP35 consumption or modification determined by LC -MS. A.
The concentration of residual FKBP35 as a function of time. Data was fit to an exponential “one phase decay” model which was used to calculate the rate (K) and half -life (t1/2) of the reaction.
The loss of FKBP35 in the DMSO and 1b controls is likely due to adsorption onto the vial. B.
Concentration of covalent adduct as a function of time. Data was fit to an “exponential plateau” regression model, which was used to calculate the rate of formation (K’). Compound 1b, which […]
C. Tabulated rates calculated from the regressions in A and B. The rates of FKBP35 consumption correlate strongly with the rates of […]
(also on this page, place not known: -inclusion 1c 0 20 40 60 0 200 400 600 Time (hours) FKBP35 (nM) Consumption of FKBP35 1a 1b 1c 2a 2c DMSO 0 20 40 60 0 200 400 600 Time (hours) Covalent Adduct (nM) Formation of Covalent Adduct 1a 1b 1c 2a 2c A B) […]
(1 picture or pasted object on this page, not shown here)
Experiments were performed using 0.4 mg/mL concentration of wild -type or mutant protein (6 - 9 uM), with and without synthes ized compounds at 40 µM and 2% DMSO (V/V). The respective reference scans were run under identical DSC conditions and subtracted from each sample scan.
The program was run in a continuous acquisition mode from 25°C to 90°C at a rate of 120C/h The heat capacity curves and midpoint temperature (Tm) were analyzed using Origin 7.0 software.
Fluorescence Polarization
The fluorescent tracer SLFb-2PEG-TAMRA was diluted in DMSO to 100 nM (100x stock concentration). FKBP proteins were diluted in assay buffer (150 mM NaCl, 20 mM HEPES pH 7.5, 0.002% Triton X -100) to the indicated concentration. 100x DMSO tracer stock was added to the protein buffer solution to a 1X final concentration and 20 µL of the mixture was aliquoted into each well of a black 384 -well assay plate (No. 3820, Corning Life Sciences). The plate was briefly centrifuged to remove bubbles. Using a d300e digital dispenser (Tecan), competitive ligands (10 mM stock in DMSO) were aliquoted in triplicate in an 8 -point 3x dilution series (30 µM to 13.7 nM final concentra tion) and normalized to 2% total DMSO concentration. Following incubation at room temperature (RT) for one hour, fluorescence polarization was measured using an EnVision Multimode Plate Reader (PerkinElmer) with the TAMRA Dual -FP mirror and filter kit. […]
analyzed in GraphPad Prism 8 by fitting the data to the “One Site – Fit Ki” model to obtain the […]
Time Course Analysis of Covalent Inhibition
The following analy sis was performed as described on two different days, yielding similar results.
One replicate is shown for clarity. In 1.5 mL snap -top tubes, ligands 1a, 1b, 1c, 2a, and 2c were each diluted to 450 μM in DMSO to produce 200x stock solutions. In a separate 1.5 mL snap-top tube, isolated FKBP35 protein was diluted to 90 μM in the reaction buffer (150 mM NaCl, 20 mM HEPES pH = 7.5) to produce a 200x stock solution. In 2 mL glass mass spec vials, 5 μL of each 200x ligand solution was diluted in 990 μL reaction buffer. Immediately prior to injection of each t=0 time point, 5 μL of the 200x protein solution was added to the mass spec vial and mixed. Samples were analyzed using the Waters BioAccord LC-ToF (composed of an ACQUITY I -Class UPLC and […]

Data set [1] in a line: Plasma stability assay, mouse. Particulars: percent remaining, 1 µM, 37 °C, 5 hours. It counts as in vitro ADME. How it is done:
(§1) In 96-well round-bottom plates, sorbitol -synchronized cultures of ring-stage NF54 P. falciparum parasites were established in triplicate and treated with varying concentrations of the inhibitors (25-0.0038 μM) serially diluted in complete medium. Parasite proliferation rates were analyzed after 72 h using the Renilla-Glo Luciferase Assay, and luminescence was measured using the GloMax® Discover Microplate Reader. EC 50 values were obtained from corrected dose-response curves using GraphPad Prism (version 5; GraphPad Software). Data represent the mean % luminescence relative to 5% DMSO-treated (vehicle, 100% growth) and 100 nM chloroquine-treated (no growth) controls.
(§2) In black, clear-bottom 96-well plates (No. 3904 Corning Life Sciences), HEK293T cells were plated at 2x10^5 cells/mL in DMEM high glucose, pyruvate media (ThermoFisher Scientific, cat. 11995073) supplemented with 10% FBS and 1% pen -strep (100 μL final volume). Cells were incubated overnight at 37°C, 5% CO2. Using a Tecan D300e digital dispenser, cells were dosed in triplicate […]
(§3) concentration, 100 mM stock in DMSO) and Carfilzomib (10 µM to 4.6 nM final concentration, 10 mM stock in DMSO) normalizing DMSO to 0.25%. Cells were then incubated at 37 °C, 5% CO2 for 72 hours. Following incubation, cells were treated with 70 µL CellTiter-Glo® Luminescent Cell Viability Assay Reagent (Promega, cat. G7570) and incubated in the dark at room temperature for 30 minutes. Plates were read using an EnVision Multimode Plate Reader (PerkinElmer). Cell viability data was normalized to DMSO controls and analyzed in GraphPad Prism 8 by fitting the data to “[Inhibitor] vs. normalized response – variable slope” model to obtain the curves.
(§4) Each compound was prepared in duplicate at 1 µM final concentration (0.2% DMSO) in human or mouse plasma (Aldrich). Samples were incubated at 37 °C for 5 hours with mixing at 350 rpm on an orbital shaker. Aliquots of each sample were taken at time zero and following 5 hours. Each sample was quenched by adding acetonitrile in a 3:1 ratio and further diluting with 50 µl of PBS.
(§5) After quenching, samples were centrifuged to pellet precipitated partic ulates and an aliquot of supernatant was diluted 1:1 with water. The resulting solution was analyzed by UPLC -MS/MS with compounds detected by MRM detection on a triple quadrupole mass spectrometer. The ratio of compound peak areas at 0 and 5 hours were use d to calculate the percent remaining.

A short description of data set [2]: Plasma stability assay, human. The conditions noted are these: percent remaining, 1 µM, 37 °C, 5 hours. Format: in vitro ADME. How it is done: as §1, §2, §3, §4, §5

T1 sequence (Q8I4V8 5-128): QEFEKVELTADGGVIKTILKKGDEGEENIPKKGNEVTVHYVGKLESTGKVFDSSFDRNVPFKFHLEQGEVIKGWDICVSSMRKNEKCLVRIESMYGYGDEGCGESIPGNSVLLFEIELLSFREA

In the case of `C=CC(=O)Nc1cccc([C@@H](CCc2ccc(OC)c(OC)c2)OC(=O)[C@@H]2CCCCN2C(=O)C(=O)C(C)(C)CC)c1` [1a], on FKBP35, the “K, rate of FKBP35 consumption” value stood at 0.0724 h⁻¹ and the “K’, rate of covalent adduct formation” value is 0.05948 h⁻¹. Further, in data set [1], the “Plasma Stability (mouse)” value is 48%. Further, the “Plasma Stability (human)” value in data set [2] stood at 92%.

`CCC(=O)Nc1cccc([C@@H](CCc2ccc(OC)c(OC)c2)OC(=O)[C@@H]2CCCCN2C(=O)C(=O)C(C)(C)CC)c1` [1b]: the “covalent adduct formation (in words)” value on FKBP35 (LC-MS time course) is listed as “no binding; also recorded: does not form any adduct”. For the same molecule, in data set [1], the “Plasma Stability (mouse)” value worked out at 18%. The “Plasma Stability (human)” value in data set [2] is recorded as 90%.

As for `C=CC(=O)Nc1ccccc1[C@@H](CCc1ccc(OC)c(OC)c1)OC(=O)[C@@H]1CCCCN1C(=O)C(=O)C(C)(C)CC` [1c], on FKBP35, the “K, rate of FKBP35 consumption” value is 0.1132 h⁻¹ and the “K’, rate of covalent adduct formation” value is 0.1128 h⁻¹. Further, the “Plasma Stability (mouse)” value in data set [1] is given as 31%. Further, the “Plasma Stability (human)” value in data set [2] is listed as 62%.

As to `C=CC(=O)OCC(C)(C)C(=O)C(=O)N1CCCC[C@H]1C(=O)O[C@H](CCc1ccc(OC)c(OC)c1)c1ccccc1` [2c], on FKBP35, the “K, rate of FKBP35 consumption” value worked out at 0.8871 h⁻¹ and the “K’, rate of covalent adduct formation” value was found to be 0.9298 h⁻¹. The “Plasma Stability (mouse)” value in data set [1] is on record as 0%. Also, in data set [2], the “Plasma Stability (human)” value was determined as 0%.
